Experimental data as given in patent publication EP0641797A1, “Cephem derivatives and antimicrobial agents containing the same” (KATAYAMA SEIYAKUSYO CO. Ltd., priority 1993, dated 1995).
Converted amounts (≈) assume the structure as drawn.

Legend:
Test in all cases: MIC on standard strains, standard method of Japan Society of Chemotherapy
Type in all cases: cell-based
E. coli CSH2(RE45) = conditions: Escherichia coli
Description: (§1) Antimicrobial activity of the compounds of the present invention were measured using CTM (cefotiam) and FMOX (flomoxef) as control drugs in accordance with the standard method of Japan Society of Chemotherapy. Of the 25 standard strains used in this test, Staphylococcus aureus 167 and Staphylococcus aureus 195 belong to MRSA.
(§2) In these tables, drugs tested are shown by the corresponding examples in which they were synthesized.

S. aureus 167 = conditions: Staphylococcus aureus; S. aureus 167 (MRSA)
Description: as §1, §2

S. marcescens IAM 1184 = conditions: Serratia marcescens, IAM1184, S. marcescens IAM 1184; read-out: MIC
Description: as §1, §2

K. pneuminiae No. 42 = system: K. pneuminiae No. 42
Description: as §1, §2

E. cloacae ATCC 13407 = conditions: Enterobacter cloacae, ATCC13407, E. cloacae ATCC 13407; read-out: MIC
Description: as §1, §2

S. aureus Smith = conditions: Staphylococcus aureus, read-out: MIC
Description: as §1, §2

S. aureus 209p JC-1 = conditions: Staphylococcus aureus, 209P, read-out: MIC
Description: as §1, §2

S. marcescens No. 16-2 = conditions: Serratia marcescens, NO.162
Description: as §1, §2

S. aureus 195 = conditions: Staphylococcus aureus; S. aureus 195 (MRSA)
Description: as §1, §2

C. freundii ATCC 8090 = conditions: Citrobacter freundii, ATCC8090, C. freundii ATCC 8090; read-out: MIC
Description: as §1, §2

P. cepacia = conditions: Burkholderia cepacia, read-out: MIC
Description: as §1, §2

S. epidemidis IAM 1296 = system: S. epidemidis IAM 1296
Description: as §1, §2

E. cloacae Nek39 = conditions: Enterobacter cloacae, NEK39, E. cloacae Nek39; read-out: MIC
Description: as §1, §2

M. luteus ATCC 9341 = conditions: Micrococcus luteus, ATCC9341
Description: as §1, §2

P. aeruginosa NCTC 10490 = conditions: Pseudomonas aeruginosa, NCTC10490, P. aeruginosa NCTC 10490; read-out: MIC
Description: as §1, §2

P. vulugaris OX-19 = system: P. vulugaris OX-19
Description: as §1, §2

A. faecalis ATCC 3750 = conditions: Alcaligenes faecalis, ATCC3750, A. faecalis ATCC 3750; read-out: MIC
Description: as §1, §2

E. coli NHIJ JC-2 = conditions: Escherichia coli, NHIJJC2
Description: as §1, §2

P. mirabilis IFO 3849 = conditions: Proteus mirabilis, IFO3849, P. mirabilis IFO 3849; read-out: MIC
Description: as §1, §2

B. subtilis ATCC 6633 = conditions: Bacillus subtilis, ATCC6633, B. subtilis ATCC 6633; read-out: MIC
Description: as §1, §2

E. coli CSH2(RK1) = conditions: Escherichia coli
Description: as §1, §2

A. calcoaceticos T59 = conditions: read-out: MIC
Description: as §1, §2

K. pneuminiae IFO 3317 = system: K. pneuminiae IFO 3317
Description: as §1, §2

P. aeruginosa AKR17 = conditions: Pseudomonas aeruginosa
Description: as §1, §2

M. morganii IFO 3848 = conditions: Morganella morganii, IFO3848
Description: as §1, §2

| SMILES | MIC (E. coli CSH2(RE45)) [µg/mL] | MIC (S. aureus 167) [µg/mL] | MIC (S. marcescens IAM 1184) [µg/mL] | MIC (K. pneuminiae No. 42) [µg/mL] | MIC (E. cloacae ATCC 13407) [µg/mL] | MIC (S. aureus Smith) [µg/mL] | MIC (S. aureus 209p JC-1) [µg/mL] | MIC (S. marcescens No. 16-2) [µg/mL] | MIC (S. aureus 195) [µg/mL] | MIC (C. freundii ATCC 8090) [µg/mL] | MIC (P. cepacia) [µg/mL] | MIC (S. epidemidis IAM 1296) [µg/mL] | MIC (E. cloacae Nek39) [µg/mL] | MIC (M. luteus ATCC 9341) [µg/mL] | MIC (P. aeruginosa NCTC 10490) [µg/mL] | MIC (P. vulugaris OX-19) [µg/mL] | MIC (A. faecalis ATCC 3750) [µg/mL] | MIC (E. coli NHIJ JC-2) [µg/mL] | MIC (P. mirabilis IFO 3849) [µg/mL] | MIC (B. subtilis ATCC 6633) [µg/mL] | further results |
| --- | --- | --- | --- | --- | --- | --- | --- | --- | --- | --- | --- | --- | --- | --- | --- | --- | --- | --- | --- | --- | --- |
| NC(=NO)c1ccc[n+](CC2=C(C(=O)[O-])N3C(=O)[C@@H](NC(=O)/C(=N\O)c4csc(N)n4)[C@H]3SC2)c1 [Ex. 19, 7β-[2-(2-aminothiazol-4-yl)-2-syn-hydroxyiminoacetamido]-3-[3-(1-amino-1-hydroxyiminomethyl)pyridinio]methyl-3-cephem-4-carboxylate] | 0.39 (≈ 0.752 µM) | 6.25 (≈ 12.1 µM) | 0.2 (≈ 0.386 µM) | 0.78 (≈ 1.5 µM) | 3.13 (≈ 6.04 µM) | 0.39 (≈ 0.752 µM) | 0.2 (≈ 0.386 µM) | 100 (≈ 193 µM) | 1.56 (≈ 3.01 µM) | 0.39 (≈ 0.752 µM) | > 100 | 0.1 (≈ 0.193 µM) | 50 (≈ 96.4 µM) | 0.1 (≈ 0.193 µM) | 3.13 (≈ 6.04 µM) | 0.39 (≈ 0.752 µM) | 3.18 (≈ 6.13 µM) | 0.39 (≈ 0.752 µM) | 0.39 (≈ 0.752 µM) | 0.39 (≈ 0.752 µM) | MIC (E. coli CSH2(RK1)): 0.78 µg/mL (≈ 1.5 µM); MIC (A. calcoaceticos T59): 6.25 µg/mL (≈ 12.1 µM); MIC (K. pneuminiae IFO 3317): 0.2 µg/mL (≈ 0.386 µM); MIC (P. aeruginosa AKR17): > 100 µg/mL; MIC (M. morganii IFO 3848): 0.2 µg/mL (≈ 0.386 µM) |
| Nc1nc(/C(=N/O)C(=O)N[C@@H]2C(=O)N3C(C(=O)[O-])=C(C[n+]4cccc(-c5ncno5)c4)CS[C@H]23)ns1 [Ex. 5, 7β-[2-(5-amino-1,2,4-thiadiazol-3-yl)-2-syn-hydroxyiminoacetamido]-3-[3-(1,2,4-oxadiazol-5-yl)pyridinio]methyl-3-cephem-4-carboxylate] | 6.25 (≈ 11.8 µM) | 50 (≈ 94.4 µM) | 6.25 (≈ 11.8 µM) | 6.25 (≈ 11.8 µM) | 25 (≈ 47.2 µM) | 3.13 (≈ 5.91 µM) | 1.56 (≈ 2.95 µM) | > 100 | 50 (≈ 94.4 µM) | 6.25 (≈ 11.8 µM) | > 100 | 0.78 (≈ 1.47 µM) | 100 (≈ 189 µM) | 0.39 (≈ 0.737 µM) | 3.13 (≈ 5.91 µM) | 6.25 (≈ 11.8 µM) | 12.5 (≈ 23.6 µM) | 6.25 (≈ 11.8 µM) | 3.13 (≈ 5.91 µM) | 0.78 (≈ 1.47 µM) | MIC (E. coli CSH2(RK1)): 12.5 µg/mL (≈ 23.6 µM); MIC (A. calcoaceticos T59): 12.5 µg/mL (≈ 23.6 µM); MIC (K. pneuminiae IFO 3317): 3.13 µg/mL (≈ 5.91 µM); MIC (P. aeruginosa AKR17): > 100 µg/mL; MIC (M. morganii IFO 3848): 3.13 µg/mL (≈ 5.91 µM) |
| Nc1nc(/C(=N/O)C(=O)N[C@@H]2C(=O)N3C(C(=O)[O-])=C(C[n+]4cccc(-c5ncno5)c4)CS[C@H]23)cs1 [Ex. 7, 7β-[2-(2-aminothiazol-4-yl)-2-syn-hydroxyiminoacetamido]-3-[3-(1,2,4-oxadiazol-5-yl)pyridinio]methyl-3-cephem-4-carboxylate] | 1.56 (≈ 2.95 µM) | 12.5 (≈ 23.7 µM) | 0.78 (≈ 1.48 µM) | 1.56 (≈ 2.95 µM) | 6.25 (≈ 11.8 µM) | 0.78 (≈ 1.48 µM) | 0.39 (≈ 0.738 µM) | > 100 | 6.25 (≈ 11.8 µM) | 0.78 (≈ 1.48 µM) | > 100 | 0.2 (≈ 0.378 µM) | 100 (≈ 189 µM) | 0.2 (≈ 0.378 µM) | 6.25 (≈ 11.8 µM) | 1.56 (≈ 2.95 µM) | 3.13 (≈ 5.92 µM) | 0.78 (≈ 1.48 µM) | 0.78 (≈ 1.48 µM) | 0.78 (≈ 1.48 µM) | MIC (E. coli CSH2(RK1)): 1.56 µg/mL (≈ 2.95 µM); MIC (A. calcoaceticos T59): 25 µg/mL (≈ 47.3 µM); MIC (K. pneuminiae IFO 3317): 0.78 µg/mL (≈ 1.48 µM); MIC (P. aeruginosa AKR17): > 100 µg/mL; MIC (M. morganii IFO 3848): 0.39 µg/mL (≈ 0.738 µM) |
